Laboratory results reported in US12312599B2, “Methods, compositions, and kits for producing beige adipocytes and treating metabolic disorders” (MaineHealth, priority 2018, dated 2025).

Test system: FD-MSCs
Assay: UCP1 expression time course of FD-MSCs during adipogenic differentiation
Assay type: cell-based, human
Method: All assays were performed between 7 and 15 passages. For osteocyte differentiation, mature MSCs were grown in 24 well culture plates to 100% confluency in MesenCult-ACF and induced to differentiate in OsteoLife Complete Osteogenesis Medium (Lifeline Cell Technology) for 21 days prior to staining with Lifeline Alizarin Red Stain to visualize calcium deposition. For chondrocyte differentiation. For beige adipogenic precursor generation, cells were grown in 24 well culture plates to 90% confluence and treated with 5 uM SB413542 (Sigma) and 10 nM human IL-4 (Peprotech) for 2 days. For beige adipogenic induction, adipogenic precursors are differentiated for 3 days with adipogenic medium consisting of T3 (2 nM), insulin (170 nM), rosiglitazone (1 μM), SB413542 (5 uM), IBMX (0.5 mM), dexamethasone (5 μM) and indomethacin (125 μM) in EGM-2 medium (Lonza) supplemented with the BulletKit minus FGF2 (modified from^33). Thereafter, cells are maintained in adipogenic medium without IBMX, dexamethasone and indomethacin. The medium was changed every 3 days and adipocytes were fully differentiated by 9-12 days as determined by lipid accumulation and peak expression of UCP1. Cell Isolation, Expansion and Differentiation of Interscapular Brown Adipose Tissue Preadipocytes • 1. Prior to adipose cell isolation, warm DMEM, FBS and cell wash buffer to room temperature. • 2. […]

With NC(=O)c1ccc(-c2nc(-c3ccc4c(c3)OCO4)c(-c3ccccn3)[nH]2)cc1 [SB, SB431542] as the compound, how does the “shift of the peak of UCP1 expression (earlier)” value (additional SB pretreatment prior to adipogenic differentiation) read?
The value was 3 days.

What about the “UCP1 gene expression (qPCR)” value (differentiated in the presence of SB) of the same compound?
Its value is “large increase”.
